Source: patent US20260070924A1, “INDAZOLE MACROCYCLES AND THEIR USE” (BLOSSOMHILL THERAPEUTICS, INC., priority 2022, published 2026)

How the values were obtained:
FLT3 [1] = target: T1, FLT3 (Homo sapiens (Human), UniProt P36888); test: HotSpot radiometric kinase assay (Reaction Biology); assay type: biochemical
Procedure: (§4) Briefly, specific kinase/substrate pairs along with required cofactors were prepared in reaction buffer; 20 mM Hepes pH 7.5, 10 mM MgCl2, 1 mM EGTA, 0.02% Brij35, 0.02 mg/ml BSA, 0.1 mM Na3VO4, 2 mM DTT, 1% DMSO. Compounds were delivered into the reaction, followed ˜20 minutes later by addition of a mixture of ATP (Sigma, St. Louis MO) and ^33P ATP (Perkin Elmer, Waltham MA) to a final concentration of 10 M. Reactions were carried out at room temperature for 120 min, followed by spotting of the reactions onto P81 ion exchange filter paper (Whatman Inc., Piscataway, NJ). Unbound phosphate was removed by extensive washing of filters in 0.75% phosphoric acid. […] IC50 values and curve fits were obtained using Prism (GraphPad Software).

[2] = tested on: S6K (PRS6KB1) exon6-8/exon 6-7; test: Alternative splicing ratio by qPCR in MOLM-13; assay type: cell-based; conditions: DMSO = 1.02
Procedure: (§1) Alternative splicing ratio of RNA transcripts was measured by qPCR in MV-4-11 and MOLM-13 cell lines. Cells were plated in 24 well plates at 1 million cells per well and then treated with compounds at different concentrations, with DMSO only as control. After 8-hour-incubation, cells were harvested and washed once with ice-cold PBS, and lysed in RNA lysis buffer (Invitrogen). Total RNA was extracted using the RNA Purification Kit (Invitrogen). 2 μg of RNA was used for cDNA synthesis using cDNA synthesis kit (ThermoFisher) and 20 ng of cDNA was used for qPCR using PROFLEX 96-Well PCR System (ThermoFisher).

FLT3-ITD = FLT3-ITD (Homo sapiens, UniProt P36888); test: HotSpot radiometric kinase assay (Reaction Biology); assay type: biochemical
Procedure: as §4

[3] = tested on: BCLAF1 exon10-12/exon 10-11; test: Alternative splicing ratio by qPCR in MOLM-13; assay type: cell-based; conditions: DMSO = 1.00
Procedure: as §1
Primers with the following sequences were used for the measurement: • BCLAF1 exon10-12/exon 10-11 (TaqMan, IDT)

BCLxS/xL = test: Alternative splicing ratio by qPCR in MOLM-13; assay type: cell-based; conditions: DMSO = 1.00
Procedure: as §1
• BCLxS/xL (SYBR Green, IDT)

FLT3-autoinhibited = FLT3-autoinhibited (Homo sapiens (Human), UniProt P36888); test: KINOMEscan binding assay (Eurofins DiscoveRx)
Procedure: (§2) For most kinases, kinase-tagged T7 phage strains were prepared in an E. coli host derived from the BL21 strain. E. coli were grown to log-phase and infected with T7 phage and incubated with shaking at 32° C. until lysis. The lysates were centrifuged and filtered to remove cell debris. The remaining kinases were produced in HEK-293 cells and subsequently tagged with DNA for qPCR detection. Streptavidin-coated magnetic beads were treated with biotinylated small molecule ligands for 30 minutes at room temperature to generate affinity resins for kinase assays. The liganded beads were blocked with excess biotin and washed with blocking buffer (SeaBlock (Pierce), 1% BSA, 0.05% Tween 20, 1 mM DTT) to remove unbound ligand and to reduce non-specific binding. […] Test compounds were prepared as 111× stocks in 100% DMSO. Kds were determined using an 11-point 3-fold compound dilution series with three DMSO control points. […] The compounds were then diluted directly into the assays such that the final concentration of DMSO was 0.9%. All reactions performed in polypropylene 384-well plate. Each was a final volume of 0.02 ml. […] The kinase concentration in the eluates was measured by qPCR. Binding constants (Kds) were calculated with a standard dose-response curve using a non-linear least square fit with the Levenberg-Marquardt algorithm.

FLT3 (ITD, D835V) = test: KINOMEscan binding assay (Eurofins DiscoveRx)
Procedure: as §2

FLT3 (D835H) = FLT3 (D835H) (Homo sapiens (Human), UniProt P36888, D835H); test: KINOMEscan binding assay (Eurofins DiscoveRx)
Procedure: as §2

FLT3 (N841I) = FLT3 (N841I) (Homo sapiens (Human), UniProt P36888, N841I); test: KINOMEscan binding assay (Eurofins DiscoveRx)
Procedure: as §2

FLT3 (ITD) = test: KINOMEscan binding assay (Eurofins DiscoveRx)
Procedure: as §2

FLT3 (K663Q) = FLT3 (K663Q) (Homo sapiens (Human), UniProt P36888, K663Q); test: KINOMEscan binding assay (Eurofins DiscoveRx)
Procedure: as §2

FLT3 (R834Q) = FLT3 (R834Q) (Homo sapiens (Human), UniProt P36888, R834Q); test: KINOMEscan binding assay (Eurofins DiscoveRx)
Procedure: as §2

FLT3 (D835Y) = FLT3 (D835Y) (Homo sapiens (Human), UniProt P36888, D835Y); test: KINOMEscan binding assay (Eurofins DiscoveRx)
Procedure: as §2

FLT3 [4] = target: T1, FLT3; test: KINOMEscan binding assay (Eurofins DiscoveRx)
Procedure: as §2

FLT3 (D835V) = FLT3 (D835V) (Homo sapiens (Human), UniProt P36888, D835V); test: KINOMEscan binding assay (Eurofins DiscoveRx)
Procedure: as §2

FLT3 (ITD, F691L) = test: KINOMEscan binding assay (Eurofins DiscoveRx)
Procedure: as §2

MOLM-13 tumor = test: Cell-derived xenograft (CDX) tumor model; assay type: in vivo; conditions: MOLM-13 CDX, mice, 13 days
Procedure: (§3) Tumor cells were cultured using standard techniques described above and were harvested and pelleted by centrifugation at 1000 rpm for 5 minutes. The pelleted cells were washed once with serum-free medium followed by subsequent re-suspension in the serum-free medium supplemented with 50% matrigel (Corning, Inc). Five million tumor cells were implanted subcutaneously to the right flank of each mouse, followed by tumor volume and body weight measurement once or twice per week with an electronic caliper (Fowler) and a balance, respectively. When the average tumor size reached a pre-determined volume, the mice were grouped and treated with Ex. 6. One group of mice were treated with vehicle as control. During treatment, mice were monitored daily by cage side observation. The tumor volume (TV) and body weight was measured twice or three times per week during the treatment. Study ended either after 4-5 weeks of treatment or tumor volume of any mice reached 1000 or 2000 mm^3. Tumor growth inhibition (TGI) was be calculated as follows: […]

IMR-32 tumor = test: Cell-derived xenograft (CDX) tumor model; assay type: in vivo; conditions: IMR-32 CDX, mice, oral 25 mg/kg QD, 8 days
Procedure: as §3

SW480 tumor = test: Cell-derived xenograft (CDX) tumor model; assay type: in vivo; conditions: mice, oral 25 mg/kg QD, 28 days
Procedure: as §3

MV-4-11 tumor = test: Cell-derived xenograft (CDX) tumor model; assay type: in vivo; conditions: MV-4-11 CDX, mice, 20 days
Procedure: as §3

SW403 tumor = test: Cell-derived xenograft (CDX) tumor model; assay type: in vivo; conditions: mice, oral 25 mg/kg QD, 20 days
Procedure: as §3

CCc1nn(C)c2c1/C=C/c1n[nH]c3ccc(cc13)-c1cnn(C)c1OCCN(C)C2=O [Ex. 6, (17E)-16-ethyl-8,12,14-trimethyl-2,11,12,14-tetrahydro-8H-3,5-ethenotripyrazolo[3,4-f:3′,4′-j:4″,3″-n][1,4]oxazacyclopentadecin-13(10H)-one]
IC50 (FLT3 [1]): 0.088 nM | Alternative Splicing Ratio S6K Ex. 6-8/Ex. 6-7 ([2]; MOLM-13, 30 nM): 1.60 | Alternative Splicing Ratio S6K Ex. 6-8/Ex. 6-7 ([2]; MOLM-13, 100 nM): 2.71 | Alternative Splicing Ratio S6K Ex. 6-8/Ex. 6-7 ([2]; MOLM-13, 300 nM): 8.08 | IC50 (FLT3-ITD): 0.348 nM | Alternative Splicing Ratio BCLAF1 Ex. 10-12/Ex. 10-11 ([3]; MOLM-13, 30 nM): 1.80 | Alternative Splicing Ratio BCLAF1 Ex. 10-12/Ex. 10-11 ([3]; MOLM-13, 100 nM): 5.76 | Alternative Splicing Ratio BCLAF1 Ex. 10-12/Ex. 10-11 ([3]; MOLM-13, 300 nM): 6.89 | Alternative Splicing Ratio BCL-xS/xL (BCLxS/xL; MOLM-13, 30 nM): 1.51 | Alternative Splicing Ratio BCL-xS/xL (BCLxS/xL; MOLM-13, 100 nM): 3.54 | Alternative Splicing Ratio BCL-xS/xL (BCLxS/xL; MOLM-13, 300 nM): 4.20 | Kd (FLT3-autoinhibited): 9.1 nM | Kd (FLT3 (ITD, D835V)): 0.058 nM | Kd (FLT3 (D835H)): 67 nM | Kd (FLT3 (N841I)): 2.2 nM | Kd (FLT3 (ITD)): 6.3 nM | Kd (FLT3 (K663Q)): 16 nM | Kd (FLT3 (R834Q)): 0.89 nM | Kd (FLT3 (D835Y)): 4.1 nM | Kd (FLT3 [4]): 0.18 nM | Kd (FLT3 (D835V)): 0.062 nM | Kd (FLT3 (ITD, F691L)): 0.23 nM | TGI % (MOLM-13 tumor; oral 12.5 mg/kg QD): 74% | TGI % (MOLM-13 tumor; oral 25 mg/kg QD): 94% | TGI % (IMR-32 tumor): 82% | TGI % (SW480 tumor): 93% | TGI % (MV-4-11 tumor; oral 6.25 mg/kg QD): 98.8% | TGI % (MV-4-11 tumor; oral 12.5 mg/kg QD): 189% | TGI % (MV-4-11 tumor; oral 25 mg/kg QD, 5dOn-2dOff): 200% | TGI % (MV-4-11 tumor; oral 25 mg/kg QD): 200% | TGI % (SW403 tumor): 84%
